The values that follow come from patent US8669291B2, “Phenyl substituted cycloalkylamines as monoamine reuptake inhibitors” (Sunovion Pharmaceuticals Inc., priority 2007, dated 2014).

Each structure is given as a SMILES string.

Assay [1] relates to reserpinized rat. As to the kind of experiment: reserpine-treated rat Parkinson's disease model. Format: in vivo. How it is done: The effects of compound 4 alone and in combination with L-DOPA were evaluated in the reserpine-treated rat Parkinson's disease model. The method, which detects antiparkinson activity (reversal of motor deficits and akinesia), follows that described by Johnston et al. (Exp Neurol, 191, 243-250, 2005). Eighteen hours prior to behavioural testing, rats were lightly anaesthetized with isoflurane and reserpine (3 mg/kg, sc) was injected along with saline (50 ml/kg) to prevent dehydration.
Accelerating Rotarod: Performance on an accelerating rotarod was assessed using a 4-station rat rotarod (MedAssociates, USA). The speed of rotation of the rotarod was increased from 3.5 to 35 rpm over 5 minutes and the time for which the animal remained on the rod determined as the mean of three trials.
Catalepsy Test: Catalepsy was assessed by placing the rat's forepaws on top of a horizontal wooden rod suspended 6 cm above the bench surface. Time taken to remove both paws from the rod was recorded, up to a maximum of 120 seconds. Three trials per animal were conducted.
Open Field: Activity in an open field arena was assessed using automated activity monitors (Linton Instrumentation, UK). Rats were placed in the activity boxes and locomotor activity was recorded over a 240 minute period.
Drug Administration: For the monotherapy experiment, the effects of 5 different treatments were assessed: 1) vehicle (sterile water, PO), 2) 3 mg/kg compound 4 (PO), 3) 10 mg/kg compound 4 (PO), 4) 30 mg/kg compound 4 and 5) 80 mg/kg (IP) of the positive reference substance, L-DOPA (80 mg/kg). In the combination experiment, 5 different treatments were assessed: 1) compound 4 vehicle (PO)+L-DOPA vehicle (IP), 2) compound 4 (10 mg/kg, PO)+L-DOPA vehicle (IP), 3) compound 4 vehicle (PO)+L-DOPA (30 mg/kg, IP), 4) compound 4 (10 mg/kg, PO)+L-DOPA (30 mg/kg, IP) and 5) compound 4 vehicle (PO)+L-DOPA (80 mg/kg, IP). Treatments were given in a randomized fashion and each animal received all treatment conditions. Compound 4 was administered 60 minutes prior to behavioral assessment and L-DOPA was administered immediately prior to behavioral testing.

Assay [2] has as its system 6-OHDA lesioned rat. As to the kind of experiment: 6-OHDA-lesioned rat Parkinson's disease model, paw placing test. Format: in vivo. How it is done:
The effects of compound 4 alone and in combination with L-DOPA were evaluated in the rodent 6-OHDA-lesioned rat Parkinson's disease model. The method, which detects antiparkinson activity (reversal of motor deficits and akinesia), follows that described by Henry et al. (Exp Neurol, 151(2): 334-42, 1998).
Animal Preparation: Prior to surgery, rats were administered pargyline (5 mg/kg, ip) and desipramine (25 mg/kg ip) to optimize subsequent 6-OHDA availability and increase specificity for toxicity to dopaminergic neurons. Rats were then anesthetized with isoflurane and placed in a stereotaxic frame. After exposure of Bregma, a burr hole was drilled in the skull above the right median forebrain bundle at co-ordinates: 2.8 mm posterior and 2 mm lateral to Bregma (according to the atlas of Paxinos and Watson, 1986). […]
Paw Placing Test: The paw placing test assesses correct placing of each forepaw in response to a sensory stimulus. […] The test was quantified as the percentage of successful placing responses of the limb contralateral to the side of the 6-OHDA lesion. […]
Drug Administration: For the monotherapy experiment, the effects of 5 different treatments were assessed: 1) vehicle (sterile water, PO), 2) 3 mg/kg compound 4 (PO), 3) 10 mg/kg compound 4 (PO), 4) 30 mg/kg compound 4 and 5) 6.5 mg/kg (IP) of the positive reference substance, L-DOPA. […]

Turning to `CNC[C@@H]1CCCC[C@@]1(O)c1ccc(Cl)c(Cl)c1` [Compound 4], the “effects of combination with low dose L-DOPA compared with higher L-DOPA dose (80 mg/kg), rotarod” value in assay [1] (10 mg/kg, PO + L-DOPA 30 mg/kg, FIG. 5) was “equal in magnitude and of longer duration”. Besides, the “baseline locomotor activity (open field) performance” value in assay [1] (alone, 3-30 mg/kg, PO, FIG. 2) is “dose-dependently improved performance”. Also, in assay [1] (alone, 3-30 mg/kg, PO, FIG. 3), the rotarod performance result is “dose-dependently improved performance”. Moreover, in assay [1] (alone, 3-30 mg/kg, PO, FIG. 4), the catalepsy performance entry is “dose-dependently improved performance”. Besides, the paw placement performance entry in assay [2] (10 mg/kg, PO in combination with low dose L-DOPA, FIG. 6) is reported as “significantly increased paw placement performance”. The “performance in the paw placement task” value in assay [2] (alone, 3-30 mg/kg, PO) is “little or no improvement in performance”.
